Experimental data: ChEMBL document CHEMBL1201862, “PubChem BioAssay data set” (2004)
Active and inactive are the calls of the source.

Tests used:
[1] = activation of miR-122 Renilla sensor silencing – cell-based, Huh7 psiCHECK-miR122, Renilla luciferase, cherry-picked, dose response (AID 651956); format: functional;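 also: huh7 hepatoma cells stably carrying a psiCHECK-2 miR-122 sensor plasmid; renilla luciferase signal reporting endogenous miR-122 activity after 48 h compound exposure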
[2] = general mammalian cell viability loss – inhibitor set, cherry-pick, set 2, cytotoxicity control for miR-122 modulator project, dose response (AID 720697); format: functional, cell-based
[3] = molecular target: T1, Sentrin-specific protease 7 (Homo sapiens, UniProt Q9BQF6); format: functional;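 also: Luminescence-based dose-response confirmation of ultra-high-throughput screening hits, measuring inhibition of SENP7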
T1 sequence (Q9BQF6 whole entry): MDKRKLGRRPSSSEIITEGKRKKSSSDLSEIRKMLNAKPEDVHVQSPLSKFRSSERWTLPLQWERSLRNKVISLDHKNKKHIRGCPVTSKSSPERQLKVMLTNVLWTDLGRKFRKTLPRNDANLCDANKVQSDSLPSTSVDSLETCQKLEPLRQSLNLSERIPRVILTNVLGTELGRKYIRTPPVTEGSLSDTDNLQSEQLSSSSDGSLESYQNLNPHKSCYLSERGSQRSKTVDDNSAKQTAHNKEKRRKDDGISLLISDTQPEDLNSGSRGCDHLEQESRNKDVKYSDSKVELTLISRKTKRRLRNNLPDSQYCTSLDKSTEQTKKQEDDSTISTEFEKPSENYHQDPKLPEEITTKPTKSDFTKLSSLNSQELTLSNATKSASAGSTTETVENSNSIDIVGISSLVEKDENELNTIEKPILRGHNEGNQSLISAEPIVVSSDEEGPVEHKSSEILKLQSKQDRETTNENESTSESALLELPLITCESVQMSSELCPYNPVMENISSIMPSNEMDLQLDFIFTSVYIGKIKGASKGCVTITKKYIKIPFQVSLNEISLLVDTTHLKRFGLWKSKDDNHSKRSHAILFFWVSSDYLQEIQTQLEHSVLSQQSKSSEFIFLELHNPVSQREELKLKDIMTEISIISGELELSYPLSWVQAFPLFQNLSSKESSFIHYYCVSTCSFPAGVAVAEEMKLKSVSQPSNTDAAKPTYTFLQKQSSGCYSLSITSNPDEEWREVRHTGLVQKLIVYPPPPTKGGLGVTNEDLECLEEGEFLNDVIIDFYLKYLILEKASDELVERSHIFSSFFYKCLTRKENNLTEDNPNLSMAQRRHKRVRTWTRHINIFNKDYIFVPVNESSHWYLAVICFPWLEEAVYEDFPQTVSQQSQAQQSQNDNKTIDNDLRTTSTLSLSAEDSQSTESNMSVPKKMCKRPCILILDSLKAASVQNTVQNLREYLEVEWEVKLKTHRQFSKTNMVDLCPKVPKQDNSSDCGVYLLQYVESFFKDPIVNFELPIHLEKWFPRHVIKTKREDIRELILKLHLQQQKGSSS

[4] = molecular target: T2, Sentrin-specific protease 8 (Homo sapiens, UniProt Q96LD8); format: functional;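 also: luminescence read-out of SENP8 inhibition, dose-response confirmation following an ultra-high-throughput screen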
T2 sequence (Q96LD8 whole entry): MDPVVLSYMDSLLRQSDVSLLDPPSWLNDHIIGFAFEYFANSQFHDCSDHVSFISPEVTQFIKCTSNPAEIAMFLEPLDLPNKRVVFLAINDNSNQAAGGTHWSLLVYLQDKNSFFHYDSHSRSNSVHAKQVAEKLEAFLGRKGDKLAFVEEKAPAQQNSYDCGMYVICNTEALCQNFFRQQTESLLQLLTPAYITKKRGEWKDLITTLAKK

[5] = molecular target: T3, Sentrin-specific protease 6 (Homo sapiens, UniProt Q9GZR1); format: functional;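 also: Luminescence-based dose-response confirmatory assay of SENP6 inhibition, following up an ultra-high-throughput screen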
T3 sequence (Q9GZR1 whole entry): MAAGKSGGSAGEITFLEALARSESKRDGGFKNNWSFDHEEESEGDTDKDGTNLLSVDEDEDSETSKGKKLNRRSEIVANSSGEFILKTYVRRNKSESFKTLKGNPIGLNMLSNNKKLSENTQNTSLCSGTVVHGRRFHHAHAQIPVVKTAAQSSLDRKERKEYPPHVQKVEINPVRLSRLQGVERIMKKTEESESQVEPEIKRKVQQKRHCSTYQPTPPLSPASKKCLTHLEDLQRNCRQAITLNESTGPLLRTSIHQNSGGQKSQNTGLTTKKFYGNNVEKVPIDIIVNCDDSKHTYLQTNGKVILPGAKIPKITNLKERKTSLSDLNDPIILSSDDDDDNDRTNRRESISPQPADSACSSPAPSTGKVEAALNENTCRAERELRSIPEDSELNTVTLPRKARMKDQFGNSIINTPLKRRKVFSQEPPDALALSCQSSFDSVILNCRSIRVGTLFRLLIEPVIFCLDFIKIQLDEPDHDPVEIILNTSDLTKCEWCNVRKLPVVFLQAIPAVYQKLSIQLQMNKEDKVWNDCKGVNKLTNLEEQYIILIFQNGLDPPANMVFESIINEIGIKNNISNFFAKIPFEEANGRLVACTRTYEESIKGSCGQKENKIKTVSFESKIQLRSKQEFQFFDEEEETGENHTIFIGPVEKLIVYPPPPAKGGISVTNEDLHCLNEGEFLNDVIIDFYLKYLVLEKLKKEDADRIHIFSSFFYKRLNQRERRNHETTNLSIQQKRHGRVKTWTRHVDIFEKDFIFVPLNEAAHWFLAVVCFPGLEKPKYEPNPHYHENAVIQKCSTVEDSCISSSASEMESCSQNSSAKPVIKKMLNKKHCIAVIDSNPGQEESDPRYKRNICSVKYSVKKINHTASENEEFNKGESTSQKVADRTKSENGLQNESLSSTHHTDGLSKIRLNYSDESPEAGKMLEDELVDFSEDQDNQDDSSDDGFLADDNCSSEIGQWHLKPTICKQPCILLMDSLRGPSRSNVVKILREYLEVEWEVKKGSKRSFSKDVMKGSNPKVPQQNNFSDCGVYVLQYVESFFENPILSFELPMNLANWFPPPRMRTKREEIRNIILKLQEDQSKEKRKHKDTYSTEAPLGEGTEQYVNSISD

Caspase-3 = molecular target: T4, Caspase-3 (Homo sapiens, UniProt P42574); format: functional;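 also: Dose-response selectivity test against caspase-3 for candidate inhibitors of sentrin-specific proteases (SENPs)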
T4 sequence (P42574 whole entry): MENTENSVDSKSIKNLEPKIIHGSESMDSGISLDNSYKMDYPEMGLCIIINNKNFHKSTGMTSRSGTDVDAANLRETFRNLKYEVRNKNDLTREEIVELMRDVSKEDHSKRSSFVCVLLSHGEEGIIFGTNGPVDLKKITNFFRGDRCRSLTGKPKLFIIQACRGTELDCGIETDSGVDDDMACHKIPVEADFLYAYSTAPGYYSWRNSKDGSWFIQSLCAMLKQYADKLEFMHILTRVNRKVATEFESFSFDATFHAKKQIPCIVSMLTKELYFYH

[6] = Luminescence Cell-Based Dose Response HTS to Identify Activators of Luciferase Translation or Activity in H4 […] Cells. [Related pubchem assays: 1829 (Project Summary), 1814 (Primary HTS)]; format: functional
[7] = NIH3T3 cell viability loss – ATP luminescence, mouse fibroblasts, counter-screen, dose response (AID 2010); format: functional, cell-based;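 also: cells exposed to compound for about 90 hours before reading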
[8] = Luminescence-based cell-based high throughput dose response assay to identify activators of the DAF-12 from the parasite S. stercoralis (ssDAF-12).; format: functional
[9] = Trypanosoma cruzi growth suppression in host cells – NIH3T3 host cells, beta-gal luminescence, confirmation (AID 2044); format: functional, cell-based;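 also: intracellular parasites grown in NIH/3T3 mouse fibroblasts as host cells; luminescent beta-galactosidase reporter signal from transgenic T. cruzi replicating inside host cells; inhibitors lower the luminescence signal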
[10] = molecular target: T5, Oxysterols receptor LXR-beta (Homo sapiens, UniProt P55055); assay: LXR agonists, Gal4 luciferase reporter, dose response, counter-screen for ssDAF-12 agonist project, cell-based, luminescence, HEK293, S. stercoralis campaign (AID 720737); format: functional; details: read-out: IC50 (the source's name)
T5 sequence (P55055 whole entry): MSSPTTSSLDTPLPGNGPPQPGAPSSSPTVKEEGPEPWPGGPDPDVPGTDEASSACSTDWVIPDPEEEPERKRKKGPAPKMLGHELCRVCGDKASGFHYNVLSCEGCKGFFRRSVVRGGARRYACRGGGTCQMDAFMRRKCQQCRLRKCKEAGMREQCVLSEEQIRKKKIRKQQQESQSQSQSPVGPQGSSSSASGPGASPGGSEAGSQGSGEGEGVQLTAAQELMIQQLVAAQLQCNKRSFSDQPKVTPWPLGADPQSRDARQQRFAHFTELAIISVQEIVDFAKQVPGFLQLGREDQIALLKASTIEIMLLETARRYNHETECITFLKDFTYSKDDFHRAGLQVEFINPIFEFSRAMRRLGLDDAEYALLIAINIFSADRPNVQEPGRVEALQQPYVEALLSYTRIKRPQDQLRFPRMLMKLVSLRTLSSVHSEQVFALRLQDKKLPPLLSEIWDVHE

H4 = assay: Luminescence Cell-Based Dose Response HTS to Identify Activators of 5'UTR Stem-Loop Driven Prion Protein mRNA Translation in H4 Neuroglioblastoma Cells. [Related pubchem assays: 1829 (Project Summary), 1814 (Primary HTS)]; format: functional; details: Homo sapiens
[11] = P. falciparum Dd2 growth inhibitors, dose response, SYBR Green, cherry-picked samples (AID 1159567); format: functional, cell-based
SN12K1 = assay: cells; format: functional; details: Homo sapiens
P388 = assay: cells; format: functional; details: Mus musculus
P388/ADR = assay: cells; format: functional; details: Mus musculus
Paired box protein Pax-8 = Paired box protein Pax-8 (Homo sapiens, UniProt Q06710); assay: PAX8 transcriptional activity inhibition in RMG-I – RMG-I cells, luciferase, cherry-pick, dose response (AID 687027); format: functional, cell-based;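 also: luciferase reporter driven by Pax8 target thyroperoxidase promoter measured by SteadyGlo luminescence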
Chain of Paired box protein Pax-8 (Q06710 whole entry): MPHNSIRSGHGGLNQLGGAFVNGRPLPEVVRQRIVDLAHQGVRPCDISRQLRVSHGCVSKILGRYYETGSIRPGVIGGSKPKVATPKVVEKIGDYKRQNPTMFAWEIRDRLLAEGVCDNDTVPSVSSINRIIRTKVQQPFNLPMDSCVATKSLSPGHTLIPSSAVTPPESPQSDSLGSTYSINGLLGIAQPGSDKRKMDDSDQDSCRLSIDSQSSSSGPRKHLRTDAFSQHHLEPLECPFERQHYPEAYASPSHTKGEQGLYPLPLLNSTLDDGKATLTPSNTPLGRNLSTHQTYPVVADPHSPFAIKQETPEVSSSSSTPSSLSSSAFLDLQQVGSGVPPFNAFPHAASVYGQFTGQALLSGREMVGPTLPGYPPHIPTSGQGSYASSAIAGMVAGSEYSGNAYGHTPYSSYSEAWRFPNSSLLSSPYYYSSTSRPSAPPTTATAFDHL

C[C@@H]1CN([C@@H](C)CO)C(=O)c2cc(NS(=O)(=O)c3ccc(F)cc3)ccc2O[C@@H]1CN(C)Cc1ccc(-c2ccccc2)cc1
AC50 [1]: 17.7 µM (active) | AC50 [2]: < 0.195 µM (active)

Cc1ccc(/C=N/OC(=O)c2nn(C)cc2Cl)cc1
IC50 [3]: 13 µM (active) | IC50 [4]: 54.7 µM (active) | IC50 [5]: 39 µM (active) | IC50 (Caspase-3): 24 µM (active)

CN1c2ccsc2/C(=N/Nc2ccc(F)cc2)CS1(=O)=O
EC50 [6]: 54.8 µM (active) | EC50 [7]: > 60 µM (not active) | IC50 [8]: > 67.5 µM (inactive) | EC50 [9]: 3.22 µM (active) | EC50 [10]: > 67.5 µM (inactive) | EC50 (H4): 49.1 µM (active)

CCc1ccc2cc3c(cc2n1)C(=O)c1ccccc1-3
IC50 [8]: > 67.5 µM (inactive) | EC50 [10]: > 67.5 µM (inactive)

C[C@@H]1CN([C@@H](C)CO)C(=O)c2c(c3ccccc3n2C)-c2ccccc2CO[C@@H]1CN(C)C(=O)[C@H](C)c1ccccc1
AC50 [11]: 3.29 µM (active)

C=C1C(=O)O[C@H]2C1[C@H](OC(=O)/C(C)=C\COC(C)=O)C[C@]1(CO1)[C@@H]1[C@H](O)[C@H]3O[C@@]3(C)[C@@H]12 (stereo partly specified)
GI50 (SN12K1): 24.8 µM (inactive) | GI50 (P388): 3.4 µM (inactive) | GI50 (P388/ADR): 8.13 µM (inactive)

COc1cccc(-c2nnc(-c3ccccc3[N+](=O)[O-])o2)c1
IC50 [3]: 10.4 µM (active) | IC50 [4]: > 100 µM (inactive) | IC50 [5]: > 100 µM (inactive) | IC50 (Caspase-3): 19.1 µM (active)

COc1ccc(CC2C(=O)NC(C)C(=O)N(C)C3C(=O)N(C)C(Cc4ccc(O)c(c4)Oc4ccc(cc4)C3O)C(=O)NC(C)C(=O)NC(C)C(=O)N2C)cc1 (stereo unspecified)
GI50 (SN12K1): 0.00262 µM (active) | AC50 (Paired box protein Pax-8): < 0.26 µM (active) | GI50 (P388): 0.00373 µM (active) | GI50 (P388/ADR): 2.26 µM (inactive)
